Each block holds one compound with its values, some of them ahead of it.
Columns and labels:
[1] = tested on: skin; settings: in vivo; cited from earlier work
[2] = Spreading Coefficient and interfacial tension against water; assay type: physicochemical
Description: The higher the Spreading Coefficient, the greater the spreadability.

[3] = Ease of emulsification, water content of oil phase by Karl Fisher; assay type: physicochemical; settings: 20 ml toluene + 20 ml test solvent + 20 ml water, 40° C., 15 minutes
Procedure: In this Example, the emulsifying properties of the compositions of the invention were compared to various commonly used solvents and to mixes of benzoates.
Tests were conducted by adding exactly 20 ml of toluene to 20 ml of the test solvent in a glass stoppered cylinder and shaking to mix. When mixed, 20 ml of water was then added, the resulting mixture warmed to 40° C. and shaken 30 times.

[4] = Greasiness comparison on skin; settings: 70°-73°F
Description: A comparison of the composition of the present invention was undertaken with a single benzoate ester falling within the carbon chain length range encompassed in the mixtures of the invention. […] This ester product is the benzoic acid ester of a mixture of C12, C13, C14 and C15 alcohols corresponding to that contained in the NEODOL 25 alcohol.

[5] = Cloud point and pour point; assay type: physicochemical
Procedure: "Cloud point", refers to the temperature at which a waxy solid material appears as the liquid composition being examined is cooled. Cloud points are also associated with pour points, which is the lowest temperature at which a liquid will flow when a container is inverted. In all cases as the temperature is lowered, the cloud point is detected first, with the pour point being generally 5°-25° F. lower.

[6] = Gel formation/settling with suspending agents; assay type: physicochemical
[7] = tested on: rats; settings: Example 13; no source given; cited from earlier work

% Water in Oil Phase (upper layer; by K-F Method) [3]: 0.66%
Compound: CCCCCCCCCCCCCCCC(=O)OC(C)C [IPP (isopropyl palmitate), isopropyl palmitate]

Physical state at ambient room temperature [4]: virtually a solid
Cloud point [5]: 21 °C
Settling time [6]: 60 to 90 s
Gel viscosity ([6]; used as the organic liquid for the gel): abnormally high viscosities
Compound: CCCCCCCCCCCCCCOC(=O)c1ccccc1 [Myristyl benzoate, myristyl (C14) benzoate]

% Water in Oil Phase (upper layer; by K-F Method) [3]: 0.26%
Compound: Octyl Isononanoate

More lines, now with the values behind:

Compound: CCCCCCCCCCCCCC(=O)OC(C)C [IPM (isopropyl myristate), isopropyl myristate]
Skin irritation [1]: suspect as an irritant
Spreading Coefficient [2]: 17.7 dynes/cm
interfacial tension against water ([2]; 25° C.): 17. dynes/cm
% Water in Oil Phase (upper layer; by K-F Method) [3]: 0.12%

Compound: CCCCOC(=O)c1ccccc1 [butyl benzoate]
LD50 (comparison ester) [7]: 3.5 g/kg of body weight

Source: patent US4322545A, “Benzoic acid esters” (priority 1981, dated 1982)
